pIC50: −log10 of the molar value.

For the test, the target named is Platelet-activating factor receptor (Oryctolagus cuniculus). Description: In vitro inhibitory activity against PAF receptor using [3H]PAF as radioligand in rabbit platelets.
For orientation: pIC50 means the negative decadic logarithm of the IC50, by convention in mol/L. Higher therefore signals a low IC50. Take `C=C1CCC2[C@@](C)(CO)CCC[C@]2(C)[C@H]1CCC1=CCOC1=O` (stereo partly drawn) [3-[2-((1S,5S,8aR)-5-Hydroxymethyl-5,8a-dimethyl-2-methylene-decahydro-naphthalen-1-yl)-ethyl]-5H-furan-2-one]: the pIC50 was 4.52. In turn, `C=C1CCC2[C@@](C)(COC)CCC[C@]2(C)[C@H]1CCC1=CCOC1=O` (stereo partly drawn) [3-[2-((1S,5S,8aR)-5-Methoxymethyl-5,8a-dimethyl-2-methylene-decahydro-naphthalen-1-yl)-ethyl]-5H-furan-2-one] had a pIC50 of 5.77. The compound `C=C1CCC2[C@@](C)(CO)CCC[C@]2(C)[C@H]1CCC1=CC(=O)OC1` (stereo partly drawn) [4-[2-((1S,5S,8aR)-5-Hydroxymethyl-5,8a-dimethyl-2-methylene-decahydro-naphthalen-1-yl)-ethyl]-5H-furan-2-one] had a pIC50 of 3.96. As to `COC(=O)[C@@]1(C)CCC[C@@]2(C)C1CCC(C)[C@@H]2CCC1CCOC1=O` (stereo partly drawn) [(1S,4aR,5S)-1,4a,6-Trimethyl-5-[2-(2-oxo-tetrahydro-furan-3-yl)-ethyl]-decahydro-naphthalene-1-carboxylic acid methyl ester], the pIC50 is 5.32. For `C=C1CCC2[C@](C)(CCC[C@]2(C)C(=O)OC)[C@H]1CCC1=CCOC1=O` (stereo partly drawn) [(1S,4aR,5S)-1,4a-Dimethyl-6-methylene-5-[2-(2-oxo-2,5-dihydro-furan-3-yl)-ethyl]-decahydro-naphthalene-1-carboxylic acid methyl ester], the negative-log IC50 (pIC50) is 6.60.

`C=C1CCC2[C@](C)(CCC[C@]2(C)C(=O)OC)[C@H]1CCC1CCOC1=O` (stereo partly drawn) [(1S,4aR,5S)-1,4a-Dimethyl-6-methylene-5-[2-(2-oxo-tetrahydro-furan-3-yl)-ethyl]-decahydro-naphthalene-1-carboxylic acid methyl ester] showed a pIC50 of 5.70. Against the preceding compound, the pIC50 is 0.90 log units lower.

For the compound `C=C1CCC2[C@](C)(CCC[C@]2(C)C(=O)OC)[C@H]1CCC1=CC(=O)OC1` (stereo partly drawn) [(1S,4aR,5S)-1,4a-Dimethyl-6-methylene-5-[2-(5-oxo-2,5-dihydro-furan-3-yl)-ethyl]-decahydro-naphthalene-1-carboxylic acid methyl ester], the pIC50 is 5.22. In the case of `C=C1CCC2[C@](C)(CCC[C@]2(C)C(=O)OC)[C@H]1CCc1ccoc1` (stereo partly drawn) [(1S,4aR,5S)-5-(2-Furan-3-yl-ethyl)-1,4a-dimethyl-6-methylene-decahydro-naphthalene-1-carboxylic acid methyl ester], the pIC50 is under 3.00. Under `C=C1CCC2[C@](C)(CCC[C@]2(C)C(=O)OC)[C@H]1CC/C(=C/CO)CO` (stereo partly drawn) [(1S,4aR,5S)-5-((Z)-5-Hydroxy-3-hydroxymethyl-pent-3-enyl)-1,4a-dimethyl-6-methylene-decahydro-naphthalene-1-carboxylic acid methyl ester] stands 4.92; under `COC(=O)[C@@]1(C)CCC[C@@]2(C)C1CC[C@H](CO)[C@@H]2CCC1=CCOC1=O` (stereo partly drawn) [(1S,4aR,5S,6S)-6-Hydroxymethyl-1,4a-dimethyl-5-[2-(2-oxo-2,5-dihydro-furan-3-yl)-ethyl]-decahydro-naphthalene-1-carboxylic acid methyl ester], 5.80. Turning to `COC(=O)[C@@]1(C)CCC[C@@]2(C)C1CCC(=O)[C@@H]2CCC1=CCOC1=O` (stereo partly drawn) [(1S,4aS,5R)-1,4a-Dimethyl-6-oxo-5-[2-(2-oxo-2,5-dihydro-furan-3-yl)-ethyl]-decahydro-naphthalene-1-carboxylic acid methyl ester], the pIC50 was 6.59. In turn, `COC(=O)[C@@]1(C)CCC[C@@]2(C)C1CCC(=O)[C@@H]2CCC1CCOC1=O` (stereo partly drawn) [(1S,4aS,5R)-1,4a-Dimethyl-6-oxo-5-[2-(2-oxo-tetrahydro-furan-3-yl)-ethyl]-decahydro-naphthalene-1-carboxylic acid methyl ester] gave a pIC50 of 5.59.

Consider `COC(=O)[C@@]1(C)CCC[C@@]2(C)C1CC[C@](O)(CO)[C@@H]2CCC1=CCOC1=O` (stereo partly drawn) [(1S,4aS,5R,6R)-6-Hydroxy-6-hydroxymethyl-1,4a-dimethyl-5-[2-(2-oxo-2,5-dihydro-furan-3-yl)-ethyl]-decahydro-naphthalene-1-carboxylic acid methyl ester], for which the pIC50 was under 3.00. Under `COC(=O)[C@@]1(C)CCC[C@@]2(C)C1CC[C@H](O)[C@@H]2CCC1=CCOC1=O` (stereo partly drawn) [(1S,4aS,5R,6S)-6-Hydroxy-1,4a-dimethyl-5-[2-(2-oxo-2,5-dihydro-furan-3-yl)-ethyl]-decahydro-naphthalene-1-carboxylic acid methyl ester] stands 5.70; under `C=C1CCC2[C@@](C)(CO)CCC[C@]2(C)[C@H]1CC/C(=C/CO)CO` (stereo partly drawn) [(Z)-2-[2-((1S,5S,8aR)-5-Hydroxymethyl-5,8a-dimethyl-2-methylene-decahydro-naphthalen-1-yl)-ethyl]-but-2-ene-1,4-diol], 4.68; under `COC(=O)[C@@]1(C)CCC[C@@]2(C)C1CC[C@]1(CO1)[C@@H]2CCC1=CCOC1=O` (stereo partly specified) [methyl 5,8a-dimethyl-1-[2-(2-oxo-2,5-dihydro-3-furanyl)ethyl]spiro[perhydronaphthalene-2,2'-(dihydrooxirane)]-5-carboxylate], 6.00.

Values taken from BindingDB's records for doi:10.1021/jm970569j (Seoul National University, 1998).
